Legend:
[1] = molecular target: His-tagged Human KRAS^G12D (Homo sapiens (Human), UniProt P01116, G12D); test: HTRF KRAS G12D GTP binding assay; conditions: displacement of GTP-Red tracer
Protocol: KRAS^G12D was used in this assay.
The ability of a test compound to bind to KRAS^G12D was measured by using an HTRF KRAS^G12D GTP Binding Kit (Cisbio, 63ADK000CB27PEG). […] 5 μL of compound solution was added to each well after serial dilution, followed by addition of 5 μL of GDP (50 nM) solution. After 30 minutes incubation at room temperature, 1×6His Eu cryptate antibody solution and GTP-Red tracer were added to the plate, then incubated for another 30 minutes. The HTRF signal was measured with a VICTOR Nivo multimode plate reader according to the manufacturer's instructions. The percent inhibition was calculated using the following formula: […]
(where the “Maximum Signal” are wells containing DMSO without inhibitor; the “Minimum Signal” are wells containing reference inhibitory component (GDP); the “Test compound signal” are wells containing test compound (inhibitor) at established concentrations).
IC50 was determined by fitting percent inhibition at each inhibitor concentration to the four-parameter nonlinear logistic equation using GraphPad Prism.

[2] = test system: MKN-1; test: Cell proliferation assay (CellTiterGlo), MKN-1; format: cell-based; conditions: Homo sapiens, MKN-1, 72 hours
Protocol: (§1) A cell proliferation assay was used to evaluate inhibition by exemplary compounds. Proliferation assays used human tissue derived cancer cell lines, for example, AsPC-1 (Cobioer, CBP60546), GP2D (Cobioer, CBP60683), NCI-H358 (Cobioer, CBP60544), NCI-H727 (Cobioer, CBP60182), MKN-1 (Cobioer, CBP60486), HCT116 (ATCC, CCL-247), and HT-29 (Cobioer, CBP60011). Signal reflecting cell proliferation was detected with the CellTiterGlo kit (Promega, G7573).
(§2) Cells were cultured in the growth phase and 3×10^3 cells per well were plated in a 96-well plate (Greiner, 655090). Cells were incubated 24 hours at 37° C. and 5% carbon dioxide in a humidity chamber. Serially diluted exemplary compounds were added to the plate which was then incubated for another 72 hours. Plates were brought to room temperature and an equal volume of CellTiterGlo reagent was added. After 10 minutes incubation at room temperature to stabilize the signal, the luminescent signal was measured on the VICTOR Nivo multimode plate reader according to the manufacturer's instructions. The signal was converted to percent inhibition using the following formula: […]
(§3) (where the “Maximum Signal” are wells containing DMSO without inhibitor; the “Minimum Signal” are signal of wells recorded at Day 0 prior to commencement of the experiment; the “Test compound signal” are wells containing inhibitor at established concentrations).
(§4) IC50 was determined by fitting percent inhibition at each inhibitor concentration to the four-parameter nonlinear logistic equation using GraphPad Prism. IC50 (nM) values of selected compounds are depicted in Table 4. “-”: means without measuring; and “ND” means not detected.

[3] = test system: NCI-H727; test: Cell proliferation assay (CellTiterGlo), NCI-H727; format: cell-based; conditions: Homo sapiens, NCI-H727, 72 hours
Protocol: as §1, §2, §3, §4

[4] = test system: NCI-H358; test: Cell proliferation assay (CellTiterGlo), NCI-H358; format: cell-based; conditions: Homo sapiens, NCI-H358, 72 hours
Protocol: as §1, §2, §3, §4

[5] = test system: AsPC-1; test: Cell proliferation assay (CellTiterGlo), AsPC-1; format: cell-based; conditions: Homo sapiens, ASPC1, AsPC-1, 72 hours
Protocol: as §1, §2, §3, §4

[6] = test system: GP2D; test: Cell proliferation assay (CellTiterGlo), GP2D; format: cell-based; conditions: Homo sapiens, 72 hours
Protocol: as §1, §2, §3, §4

[7] = Microsomal stability assay, mouse liver microsomes; format: in vitro ADME; conditions: CD-1, pooled mouse liver microsomes, 0.5 mg/mL protein
Protocol: (§5) Test results from this assay were used to determine the metabolic liabilities of test compounds and allow focus on the improvement of drug candidates through structure-activity relationships. Pooled mouse/rat/human liver microsomes were used for this assay
(§6) In vitro mouse (CD-1, BioIVT)/rat (SD, RILD)/human (Corning) liver microsomal suspensions at 0.5 mg/mL protein and 1.3 mM NADPH, 3.3 mM MgCl2 were pre incubated at 37° C. for 3 mins prior to addition of 0.1 mM test compound solution to give a final incubation concentration of 1 μM. Samples were incubated for 0, 15, 30, 60 minutes at 37° C. on a shaker (the positive control substance was cultured for 0 or 60 minutes). At the end of each incubation time both incubated and control samples were quenched with ice-cold stop solution containing internal standard. All samples were mixed by a plate shaker at 800 rpm for 5 minutes, then centrifuged at 4100 rpm for 15 minutes at 4° C. to precipitate protein. Supernatant was transferred to another 96-well plate, dilution solution was added to each supernatant well, and then each bioanalysis plate was sealed. The samples were mixed by plate shaker at 800 rpm for 5 minutes and then centrifuged at 4° C., 4100 rpm for 5 minutes. All samples were stored at 4° C. before LC-MS/MS analysis.
(§7) The peak area ratio was converted to the remaining percentages (% Remaining) using the following formula: […]
(§8) where % Remaining is the compound ratio (compound peak area/internal standard peak area) as a percentage of the 0 minute time point.
(§9) The ln remaining percent of test articles were plotted against time and the gradient of the line determined; the gradient was converted to elimination rate constant by using the following formula:
(§10) Elimination rate constant(ke)=−gradient
(§11) Half time (T1/2) was determined using following formula: […]
(§12) Hepatic intrinsic clearance (CLint(liver)) was determined by using the following formulas: […]
(§13) The Intrinsic clearance of selected compounds is depicted in Table 6.

[8] = Microsomal stability assay, rat liver microsomes; format: in vitro ADME; conditions: SD, pooled rat liver microsomes, 0.5 mg/mL protein
Protocol: as §5, §6, §7, §8, §9, §10, §11, §12, §13

[9] = Microsomal stability assay, human liver microsomes; format: in vitro ADME; conditions: pooled human liver microsomes, 0.5 mg/mL protein
Protocol: as §5, §6, §7, §8, §9, §10, §11, §12, §13

His-tagged Human KRAS^G12D, sequence (P01116-2 other isoform, or with tags, fused parts or gaps G12D): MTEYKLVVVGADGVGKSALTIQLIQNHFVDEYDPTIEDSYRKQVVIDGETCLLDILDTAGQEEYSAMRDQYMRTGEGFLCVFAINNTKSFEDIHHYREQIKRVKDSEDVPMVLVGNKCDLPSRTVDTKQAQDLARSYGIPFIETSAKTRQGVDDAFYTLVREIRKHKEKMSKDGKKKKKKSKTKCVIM

## CCc1c(F)ccc2cc(O)cc(-c3ncc4c(N5CCC[C@H]5C(N)=O)nc(OC[C@@]56CCCN5C[C@H](F)C6)nc4c3F)c12 [Compound 6]
[1]
  IC50: 1390 nM
[2]
  IC50: > 10000 nM
[3]
  IC50: > 10000 nM
[4]
  IC50: > 10000 nM

## CCc1c(F)ccc2cc(O)cc(-c3ncc4c(N5CCC[C@H]5C(=O)OC)nc(OC[C@@]56CCCN5C[C@H](F)C6)nc4c3F)c12 [Compound 7]
[1]
  IC50: > 1000 nM
[2]
  IC50: > 10000 nM
[3]
  IC50: 5310 nM
[4]
  IC50: 7980 nM

## CCc1c(F)ccc2cc(O)cc(-c3ncc4c(N5CCC[C@]6(CCO6)C5)nc(OCC(C)(C)CN(C)C)nc4c3F)c12 [Compound 26a]
[5]
  IC50: 30.8 nM
[1]
  IC50: 13.3 nM
[6]
  IC50: 4.5 nM
[3]
  IC50: 37.4 nM
[4]
  IC50: 98.5 nM

## CCc1c(F)ccc2cc(O)cc(-c3ncc4c(N5CCC[C@H]5CO)nc(OC[C@@]56CCCN5C[C@H](F)C6)nc4c3F)c12 [Compound 3]
[6]
  IC50: 1570 nM
[2]
  IC50: 1780 nM
[3]
  IC50: 1080 nM
[4]
  IC50: 1660 nM

## CCc1c(F)ccc2cc(O)cc(-c3ncc4c(N5CCC[C@]6(CCO6)C5)nc(OC[C@@]56CCCN5C[C@H](F)C6)nc4c3F)c12 [Compound 68]
[7]
  CLint scaled at 1 μM: 2270 mL/min/kg
[8]
  CLint scaled at 1 μM: 311 mL/min/kg
[9]
  CLint scaled at 1 μM: 124 mL/min/kg

## CCc1c(F)ccc2cc(O)cc(-c3ncc4c(N5CCC[C@]6(CCO6)C5)nc(OCC5(CN6CCC7(CC6)CC(N6CCOCC6)C7)CC5)nc4c3F)c12 [Compound 20a]
[1]
  IC50: 4.7 nM
[6]
  IC50: 4.7 nM
[4]
  IC50: 125 nM

## CCc1c(F)ccc2cc(O)cc(-c3ncc4c(N5CC[C@@H](O)C5)nc(OC[C@@]56CCCN5C[C@H](F)C6)nc4c3F)c12 [Compound 1]
[1]
  IC50: 261 nM
[6]
  IC50: 4220 nM
[2]
  IC50: 4090 nM
[3]
  IC50: 1870 nM
[4]
  IC50: 3210 nM

## CCc1c(F)ccc2cc(O)cc(-c3ncc4c(N5CCC[C@@]6(CCO6)C5)nc(OC[C@@]56CCCN5C[C@H](F)C6)nc4c3F)c12 [Compound 67]
[7]
  CLint scaled at 1 μM: 1280 mL/min/kg
[8]
  CLint scaled at 1 μM: 288 mL/min/kg
[9]
  CLint scaled at 1 μM: 83.5 mL/min/kg

## CCc1c(F)ccc2cc(O)cc(-c3ccc4c(N5CCC[C@]6(CCO6)C5)nc(OCC5(CN(C)C)CC5)nc4c3F)c12 [Compound 15a]
[7]
  CLint scaled at 1 μM: 371 mL/min/kg
[1]
  IC50: 19.6 nM
[8]
  CLint scaled at 1 μM: 52.9 mL/min/kg
[9]
  CLint scaled at 1 μM: 31.8 mL/min/kg

## CCc1c(F)ccc2cc(O)cc(-c3ncc4c(N5C[C@H](O)C[C@H]5C(=O)OC)nc(OC[C@@]56CCCN5C[C@H](F)C6)nc4c3F)c12 [Compound 4]
[1]
  IC50: > 1000 nM
[6]
  IC50: 1630 nM
[2]
  IC50: 7880 nM
[3]
  IC50: 4040 nM
[4]
  IC50: 6600 nM

## CCc1c(F)ccc2cc(O)cc(-c3ncc4c(N5CCCC6(CCO6)C5)nc(OCC5(CN6CCOCC6)CC5)nc4c3F)c12 (centres unmarked) [Compound 2a]
[7]
  CLint scaled at 1 μM: 2630 mL/min/kg
[1]
  IC50: 18.8 nM
[8]
  CLint scaled at 1 μM: 887 mL/min/kg
[9]
  CLint scaled at 1 μM: 402 mL/min/kg

## CCc1c(F)ccc2cc(O)cc(-c3ncc4c(N5CCC[C@]6(CCO6)C5)nc(OCC5(CN6CCC(C(=O)O)CC6)CC5)nc4c3F)c12 [Compound 33a]
[1]
  IC50: 10.3 nM
[6]
  IC50: 421 nM
[4]
  IC50: > 10000 nM

## CCc1c(F)ccc2cc(O)cc(-c3ncc4c(N5CCC[C@]6(CCO6)C5)nc(OCC5(CN(C)C)CC5)nc4c3F)c12 [Compound 34a]
[5]
  IC50: 21.6 nM
[7]
  CLint scaled at 1 μM: 255 mL/min/kg
[1]
  IC50: 3.1 nM
[6]
  IC50: 1.4 nM
[8]
  CLint scaled at 1 μM: 29.2 mL/min/kg
[9]
  CLint scaled at 1 μM: 26.3 mL/min/kg
[3]
  IC50: 13.7 nM
[4]
  IC50: 23.7 nM

## CCc1c(F)ccc2cc(O)cc(-c3ncc4c(N5C[C@H](O)C[C@H]5CO)nc(OC[C@@]56CCCN5C[C@H](F)C6)nc4c3F)c12 [Compound 2]
[1]
  IC50: 185 nM
[6]
  IC50: 1320 nM
[2]
  IC50: > 10000 nM
[3]
  IC50: > 10000 nM
[4]
  IC50: 6320 nM

## CCc1c(F)ccc2cc(O)cc(-c3ncc4c(N5CCC[C@]6(CCO6)C5)nc(OCC5(CN(CC)CC)CC5)nc4c3F)c12 [Compound 27a]
[5]
  IC50: 32 nM
[1]
  IC50: 12.7 nM
[6]
  IC50: 3.07 nM
[3]
  IC50: 24.8 nM
[4]
  IC50: 40.5 nM

## CCc1c(F)ccc2cc(O)cc(-c3ncc4c(N5CCC[C@]6(CCO6)C5)nc(OCC5(CN6CCC7(CC6)CC(N6CCC(c8ccc9cnn(C)c9c8)CC6)C7)CC5)nc4c3F)c12 [Compound 19a]
[1]
  IC50: 16.1 nM
[6]
  IC50: 14.1 nM
[4]
  IC50: 15.2 nM

## CCc1c(F)ccc2cc(O)cc(-c3ncc4c(N5CCCC6(CCO6)C5)nc(OCC5(CN(C)C)CC5)nc4c3F)c12 (centres unmarked) [Compound 73]
[7]
  CLint scaled at 1 μM: 361 mL/min/kg
[1]
  IC50: 10.7 nM
[8]
  CLint scaled at 1 μM: 51.1 mL/min/kg
[9]
  CLint scaled at 1 μM: 32.4 mL/min/kg

## CCc1c(F)ccc2cc(O)cc(-c3ncc4c(N5CCC[C@]6(CCO6)C5)nc(OCC5(CN6CCC7(CC6)COC7)CC5)nc4c3F)c12 [Compound 18a]
[1]
  IC50: 4.5 nM
[6]
  IC50: 1.9 nM
[4]
  IC50: 23 nM

## CCc1c(F)ccc2cc(O)cc(-c3ncc4c(N5CCC[C@]6(CCO6)C5)nc(OCC5(CN6CCC7(CC6)CC(N6CCCCC6)C7)CC5)nc4c3F)c12 [Compound 21a]
[1]
  IC50: 6.8 nM
[6]
  IC50: 16.3 nM
[4]
  IC50: 92.2 nM

## CCc1c(F)ccc2cc(O)cc(-c3ncc4c(N5CCC[C@]6(CCO6)C5)nc(OCC5(CN6CCCCC6)CC5)nc4c3F)c12 [Compound 9a]
[5]
  IC50: 20.1 nM
[1]
  IC50: 7.9 nM
[6]
  IC50: 1.6 nM
[3]
  IC50: 15 nM
[4]
  IC50: 18.5 nM

## CCc1c(F)ccc2cc(O)cc(-c3ncc4c(N5CCC[C@]6(CCO6)C5)nc(OCC5(CN6CCC6)CC5)nc4c3F)c12 [Compound 13a]
[1]
  IC50: 13.2 nM

## CCc1c(F)ccc2cc(O)cc(-c3ncc4c(N5CCC[C@H]5CN)nc(OC[C@@]56CCCN5C[C@H](F)C6)nc4c3F)c12 [Compound 23]
[1]
  IC50: 1350 nM

## CCc1c(F)ccc2cc(O)cc(-c3ncc4c(N5CC(F)(F)C[C@H]5CO)nc(OC[C@@]56CCCN5C[C@H](F)C6)nc4c3F)c12 [Compound 21]
[1]
  IC50: > 10000 nM

## CCc1c(F)ccc2cc(O)cc(-c3ncc4c(N5CC[C@H](CO)C5)nc(OC[C@@]56CCCN5C[C@H](F)C6)nc4c3F)c12 [Compound 48]
[1]
  IC50: > 1000 nM

## CCc1c(F)ccc2cc(O)cc(-c3c(Cl)cc4c(N5CCCC6(CCO6)C5)nc(OC[C@@]56CCCN5C[C@H](F)C6)nc4c3F)c12 (some centres unmarked) [Compound 92]
[1]
  IC50: 416 nM

## CCc1c(F)ccc2cc(O)cc(-c3ncc4c(N5C[C@H]6C[C@@H]5[C@@H](O)C6)nc(OC[C@@]56CCCN5C[C@H](F)C6)nc4c3F)c12 [Compound 37]
[1]
  IC50: > 1000 nM
